Converted amounts (≈) assume the structure as drawn. Like-named read-outs stand apart in the source and are kept apart here. One block for each compound: values may come before it.
How the values were obtained:
[1] = system: staphylococcal strains; experiment: MIC95 quoted for staphylococcal persister and biofilm experiments; type: cell-based; conditions: read-out: MIC95
Experimental: A-D) Overnight cultures of the indicated strains were treated at time 0 with DMSO, ciprofloxacin [4 μg/mL], vancomycin [10 μg/mL], or the corresponding MIC95 concentration of D66 (1x MIC95=130 μM, 49 μg/mL). Cultures were plated for enumeration of CFU at time points indicated. Mean and SEM of three biological replicates. E) RAW 264.7 macrophage-like cells and HeLa cells were infected with S. aureus USA300, at MOIs of 0.5 and 2.5, respectively. Cells were treated two hours after infection with DMSO (gray circle on Y axis), or dilutions of D66 from 40 μM. After 8 hours of infection, cells were lysed and plated for enumeration of CFU. Mean and SEM of biological duplicates performed with technical triplicates each with six dilutions of D66. The IC50 value that was calculatable is indicated.
Biofilm formation was monitored after 18 hours in TSB with subinhibitory concentrations of DMSO, rifampin (1x MIC95=0.05 μg/mL), vancomycin (1x MIC95=1 μg/mL), or D66 (1x MIC95=130 μM). A-D) Crystal violet staining for accumulated biofilm mass measured at A595. Mean and […]

[2] = system: S. Typhimurium; experiment: Propidium iodide membrane barrier assay; type: cell-based; conditions: LB with PMB [0.5 μg/mL]; D66 at 2x MIC95; SDS [0.005%] positive control
Experimental: FIG. 3A-F. D66 rapidly perturbs the bacterial cytoplasmic membrane with minor disruption of barrier function. Mid-log phase S. Typhimurium cells grown in LB with 0.5 μg/mL PMB were used for all experiments. A) Cell membrane potential was monitored with the fluorescent dye DiSC3 (5). Cells were treated at time 0 with DMSO, JD1 [70 μM], or D66. Data were normalized to DMSO at time 0 and corrected for the quenching effect of D66 (FIG. 6A, B) B) Cell membrane permeability was monitored by PI fluorescence. Cells were treated at time 0 with DMSO, SDS [0.005%] or D66. Samples were processed at the time points shown. A one-way ANOVA with a Dunnet's multiple comparison test, * P<0.005. C-F) Growth curves and kill-curves of cells treated at time 0 with either DMSO or D66. Culture aliquots were monitored for OD600 (C, E) or plated for enumeration of CFU (D, F). Data are presented as fold change. Mean and SEM of three biological replicates with technical triplicates are shown in all panels.
Propidium iodide membrane barrier assays: Compound, DMSO, or SDS was added to mid-log phase cells to the desired concentration, and cultures were sampled at 0, 10, 15, 20, 30 and 45 minutes. Five minutes before harvesting, PI [10 μg/mL] (Life Technologies) was added. Cells were pelleted, washed twice, resuspended in PBS, and monitored (ex535/em617 nm) using a BioTek Synergy H1 plate reader.

[3] = system: RAW 264.7 cells; experiment: Mitochondrial membrane potential with TMRM; conditions: uninfected RAW 264.7 cells; D66 first two hours; CCCP 7 μM

MIC ([1]; staphylococcal strains): 0.05 µg/mL (≈ 0.0608 µM)
Compound: CO[C@H]1/C=C/O[C@@]2(C)Oc3c(C)c(O)c4c(O)c(c(/C=N/N5CCN(C)CC5)c(O)c4c3C2=O)NC(=O)/C(C)=C\C=C\[C@H](C)[C@H](O)[C@@H](C)[C@@H](O)[C@@H](C)[C@H](OC(C)=O)[C@@H]1C [rifampin, reference compound]

Compound: CN[C@H](CC(C)C)C(=O)N[C@H]1C(=O)N[C@@H](CC(N)=O)C(=O)N[C@H]2C(=O)N[C@H]3C(=O)N[C@H](C(=O)N[C@H](C(=O)O)c4cc(O)cc(O)c4-c4cc3ccc4O)[C@H](O)c3ccc(c(Cl)c3)Oc3cc2cc(c3O[C@@H]2O[C@H](CO)[C@@H](O)[C@H](O)[C@H]2O[C@H]2C[C@](C)(N)[C@H](O)[C@H](C)O2)Oc2ccc(cc2Cl)[C@H]1O [vancomycin, reference compound]
MIC [1]: 1 µg/mL (≈ 0.69 µM)

Compound: CCCCCCCCCCCCOS(=O)(=O)[O-].[Na+] [SDS, reference compound]
time of treatment after which PI signal increased [2]: 10 min

Compound: N#CC(C#N)=NNc1cccc(Cl)c1 [CCCP, carbonyl cyanide m-chlorophenyl hydrazone, reference compound]
TMRM fluorescence (mitochondrial membrane potential) [3]: decreased TMRM fluorescence

Source: patent US20250302846A1, “ANTIBIOTIC COMPOSITION AND METHODS OF USE THEREOF” (THE REGENTS OF THE UNIVERSITY OF COLORADO A BODY CORPORATE, priority 2022, published 2025)
